Measurements taken from paper PMC9696335, “Natural Inhibitors Targeting the Localization of Lipoprotein System in Vibrio parahaemolyticus” (International Journal of Molecular Sciences, 2022).

Experiments:
LolB [1] = biological target: T1, LolB (Vibrio parahaemolyticus, UniProt Q87RN6); assay: intrinsic fluorescence quenching of purified LolB, one-site binding fit
T1 construct: Residues 26-212, N-terminal His6 tag

LolB [2] = biological target: T1, LolB; assay: intrinsic fluorescence quenching of purified LolB (Stern-Volmer Ksv; Kd only said to be micromolar); assay type: binding

T1 sequence (Q87RN6 17-203): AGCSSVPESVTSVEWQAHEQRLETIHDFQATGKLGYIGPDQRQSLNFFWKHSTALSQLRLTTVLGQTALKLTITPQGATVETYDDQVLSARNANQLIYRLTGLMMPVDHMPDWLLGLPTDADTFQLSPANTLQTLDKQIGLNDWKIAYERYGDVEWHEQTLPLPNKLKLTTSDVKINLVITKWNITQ

Oc1cc(O)c2c(c1)O[C@@H](c1ccc(O)c(O)c1)[C@@H](O[C@]1(c3ccc(O)c(O)c3)Oc3cc(O)cc(O)c3[C@@H](O)[C@H]1O)C2 [procyanidin]
Kd (LolB [1]): 14.7 ± 4.65 µM

C[C@@H]1O[C@@H](OC[C@H]2O[C@@H](Oc3c(-c4ccc(O)c(O)c4)oc4cc(O)cc(O)c4c3=O)[C@H](O)[C@@H](O)[C@@H]2O)[C@H](O)[C@H](O)[C@H]1O [rutin]
Ksv (10^4 L/mol) (LolB [2]): 8.7014 10^4 L/mol

C=C1C[C@@]23CC[C@H]4[C@@](C)(CCC[C@@]4(C)C(=O)O[C@@H]4O[C@H](CO)[C@@H](O)[C@H](O)[C@H]4O)[C@@H]2CC[C@]1(O[C@@H]1O[C@H](CO)[C@@H](O)[C@H](O)[C@H]1O[C@@H]1O[C@H](CO)[C@@H](O)[C@H](O)[C@H]1O)C3 [stevioside]
Ksv (10^4 L/mol) (LolB [2]): 6.1570 10^4 L/mol

C[C@@H]1O[C@@H](OC[C@H]2O[C@@H](Oc3c(-c4ccc(OCCO)c(OCCO)c4)oc4cc(OCCO)cc(O)c4c3=O)[C@H](O)[C@@H](O)[C@@H]2O)[C@H](O)[C@H](O)[C@H]1O [troxerutin]
Ksv (10^4 L/mol) (LolB [2]): 14.2317 10^4 L/mol
